This is an account of results in a melting point compilation (Tetko et al.; mined from patent text by program, amines drawn as free bases though some values may be those of a salt).

One may read the melting point as the temperature, or range, at which the solid turns liquid. In the case of `C[C@@H](Nc1ncnc2[nH]c(-c3ccc(CNC(=O)CCN4CCCCC4)cc3)cc12)c1ccccc1`, the melting point was 140 °C.

As to `COc1ccc(N2CCN(c3ccc(N)nc3-c3ccc(C)cc3)CC2)cc1`, the melting point lay within 193 to 200 °C.

Molecule `CCOc1cc2c(cc1OC)C(c1ccc(NS(=O)(=O)c3ccc(C)cc3)cc1)=N[C@H]1CCN(C)C[C@@H]21` gave a melting point of 207 to 219 °C.

As to `CCCCc1ncc(C=O)n1Cc1ccc(C(=O)OC)c2ccccc12`, the melting point lay in the range of 95.5 to 97 °C.

In the case of `NS(=O)(=O)c1cc2cc[nH]c(=O)c2o1`, the melting point was 290 to 291 °C.

For `CC(C)Cn1c(=O)n(C)c(=O)c2nc(-c3ccc(/C=C/C(=O)O)cc3)[nH]c21`, the melting point is over 300 °C.

Regarding `Cc1c2n(c3ccccc13)CC(C)(C)C2O` (configuration not stated), the melting point was 82 to 85 °C.

As to `CN1CCN(C2c3ccccc3CC2O)CC1` (configuration not stated), the melting point stood at 132 °C.

Consider `COc1cccc(OCCN2CCC(N(C)c3nccc(N(C)C)n3)CC2)c1`, for which the melting point worked out at 105 °C.

The molecule `CN1CCN(c2ccccc2C=C2SCCN(c3ccc(Cl)c(Cl)c3)C2=O)CC1` yielded a melting point of 155 to 157 °C.

Molecule `CC(=O)Oc1ccc(Oc2ccc(NC(=O)Nc3cc(C(C)(C)C)on3)cc2)cc1` came in with a melting point of 146 °C.

The molecule `CNC(=S)C1(c2cccc(C)n2)SCCCS1` came in with a melting point of 168 °C.

`COc1cccc(C(=O)NCC2CCCCC2)c1NC(=O)N[C@@H](Cc1ccc(NC(=O)c2c(Cl)cccc2Cl)cc1)C(=O)O` came in with a melting point of 175 °C.

`O=Cc1cn(Cc2ccc(OCc3ccccc3)cc2)nc1OCc1ccc(OCc2ccccc2)cc1` displayed a melting point of 138 to 139 °C.

`CCOC(=O)c1cnc2c(c(C)nn2-c2ccccn2)c1N` showed a melting point of 147 to 149 °C.

Take `CCCCc1ccc(NC=O)c([N+](=O)[O-])c1`: the melting point is 72 to 73 °C.

`CN(C)CCc1c(CSc2ccccc2)c2ccccc2n1C` showed a melting point of 58 to 60 °C.

Consider `O=C1C(=O)N(C(c2ccccc2)c2ccccc2)c2cc(F)ccc21`, for which the melting point was 167 to 169 °C.

On to `CCCCc1nn(-c2cc(N)ccc2Cl)c(=O)n1Cc1ccc(-c2ccccc2S(=O)(=O)NC(=O)OC(C)(C)C)cc1F`, for which the melting point lay within 208 to 210 °C.

`Cc1cccc2ncc(C(=O)NC3CCCCCC3)c(=O)n12` returned a melting point of 172 to 174 °C.

As to `CCOc1nc(=O)n(C(=O)NC)s1`, the melting point came out at 152 °C.

Turning to `COc1cccc(S)c1S(N)(=O)=O`, the melting point was determined as 166 °C.

Turning to `CN1CCSC1=NC(=Nc1ccc(Cl)cc1)N1CCCC1`, the melting point was 124 to 127 °C.

As to `CCn1c(=O)c(Oc2ccc(F)cc2F)cc2cnc(NC3CCOCC3)nc21`, the melting point was in the range of 199 to 206 °C.

With `CC(=O)Nc1ccc(C(=O)Nc2c(C)cccc2C)cc1`, the melting point is 293 to 295 °C.

As to `COc1ccc(C2=NN(CCCCCCN3C(=O)c4ccccc4C3=O)C(=O)[C@H]3CC=CC[C@@H]23)cc1OC` (relative stereo), the melting point was 104 to 105 °C.

On to `CNC(=NCCSCc1[nH]cnc1C)NS(=O)(=O)c1ccccc1`, for which the melting point is 156 to 158 °C.

In turn, `Cc1cccc2c(=O)[nH]c(CCN3CCCC(O)C3)cc12` (configuration not stated) returned a melting point of 180 to 181 °C.

`O=C(O)COc1ccc(C(=O)CCN2CCN(c3ccncc3)CC2)cc1`: the melting point lay in the range of 238 to 239 °C.

In the case of `COc1cc(C(=O)c2c(F)cccc2F)ccc1O`, the melting point was 147 to 149 °C.

For the molecule `CC(=O)NCC1CN(c2ccc(N3CCC(=CC#N)C(F)C3)c(F)c2)C(=O)O1` (configuration not stated), the melting point was in the range of 138 to 140 °C.

`CCN(CCCc1coc2c(OC)cccc12)C1COc2c(F)ccc(C(N)=O)c2C1` (configuration not stated) returned a melting point of 125 to 128 °C.

As for `CCOc1ccc(C2=NN(C3CCCCCC3)C(=O)[C@H]3CC=CC[C@@H]23)cc1OCC` (relative stereo), the melting point was in the range of 92 to 93 °C.

`Clc1ccc2c(C3=CCN(CCC4CCc5ccccc54)CC3)c[nH]c2c1` (configuration not stated) registered a melting point of 181 to 183 °C.

On to `COc1nc2ccc(Br)cc2cc1C(c1ccccc1)n1cccn1` (configuration not stated), for which the melting point was in the range of 142 to 144 °C.

In the case of `CC(C(=O)O)c1ccc(N=c2sccn2C)c(Cl)c1` (configuration not stated), the melting point lay in the range of 132 to 133 °C.

In turn, `COC(=O)c1ccc(CCSC(C)=O)s1` displayed a melting point of 67 to 68 °C.

`CCC(=O)NCC=C1CCc2ccc3nc(C)oc3c21` registered a melting point of 214 to 216 °C.

`COc1cc(C)cc(OC)c1C1=NC(NC(=O)C(N)Cc2ccccc2)C(=O)N(C)c2ccccc21` (configuration not stated) showed a melting point of 165 °C.

The molecule `Cc1noc(-c2ccc(Br)c(C)c2)n1` came in with a melting point of 75 to 77 °C.

Molecule `Cn1cc(C2=C(c3c4n(c5ccccc35)CCC(N=C=S)C4)C(=O)NC2=O)c2ccccc21` (configuration not stated) came in with a melting point of 285 to 287 °C.

Take `Cc1c(C)n(C2CC2)c2c(OCc3ccccc3)nncc12`: the melting point is 121 to 122 °C.

`CCOC(=O)c1c(-c2ccc(C)cc2)c2ccncc2c(=O)n1C` gave a melting point of 134 to 136 °C.

Molecule `O=c1[nH]c2cc(Cl)ccc2c(O)c1-c1cccc(F)c1` returned a melting point of over 350 °C.

`Cc1nnc(C2=C(O)c3ccccc3S(=O)(=O)N2C)o1` showed a melting point of 226 to 227 °C.

`Cn1c(C(F)(F)F)ccc(-c2cc(NS(C)(=O)=O)c(Cl)cc2F)c1=O`: the melting point fell in the range of 113 to 114 °C.

The molecule `CCCCc1cc2cc([N+](=O)[O-])ccc2[nH]1` returned a melting point of 105 °C.

In the case of `CCc1nn2c(Cl)cc(Cl)nc2c1S(=O)(=O)c1ccccc1`, the melting point was in the range of 166 to 167 °C.

Take `CS(=O)(=O)Nc1cnc([N+](=O)[O-])cn1`: the melting point was 204 to 207 °C.

Take `CN(C)CCCC(=O)Nc1nc2c(s1)-c1c(cnn1-c1ccccc1)C2`: the melting point lay within 218 to 222 °C.

In turn, `Cc1cn(CCCN2C(=O)c3ccc(Cl)c(Cl)c3C2=O)cn1` showed a melting point of 147 to 151 °C.

`Nc1c(OCCCl)cccc1[N+](=O)[O-]` registered a melting point of 71 to 73 °C.

For `COc1cc(C(C)C)c2c(c1)S(=O)(=O)N(COc1cc(-c3ccccc3)nn1-c1ccccc1)C2=O`, the melting point lay in the range of 62 to 76 °C.

Turning to `CCOC(=O)c1cnn(-c2nc(-c3cccc(C(F)(F)F)c3)cs2)c1C`, the melting point is 138 °C.

`COc1ccc(OC)c2c1C(=O)C=C(SCCCCO)C2=O`: the melting point fell in the range of 122 to 123 °C.

Consider `CC1C(=O)N(c2ccccc2)C(=S)N1c1ccc(Sc2ccccc2)cc1` (configuration not stated), for which the melting point came out at 84 °C.

Molecule `CC(C)(C)NC(=O)OC1OCN(c2cccc(C(F)(F)F)c2)C1=O` (configuration not stated) registered a melting point of 125 to 126 °C.

Take `O=C(NCCOc1ccc(CC(Oc2ccc(F)cc2)C(=O)O)cc1)c1ccc(-c2ccccn2)cc1` (configuration not stated): the melting point fell in the range of 139 to 140 °C.

Consider `CC(=O)OC1CSC(Oc2cncc(-c3ccc(C)cc3)c2)C(OC(C)=O)C1OC(C)=O` (configuration not stated), for which the melting point is 160 to 162 °C.

`CC12CC3CC(C1)CC(CNC(=O)n1cc(F)c(=O)[nH]c1=O)(C3)C2` came in with a melting point of 172 °C.

For the molecule `Fc1cccc(F)c1-c1nnc(-c2ccccc2Br)nn1`, the melting point worked out at 168 °C.

On to `CCCCc1ccc(-c2ccc(CCc3ccc(F)cc3)cc2)c(F)c1`, for which the melting point was determined as 35 °C.

Molecule `CC(C)c1csc(/C=C/c2cc(NC(=O)Cc3ccccc3C(=O)O)ccc2Cl)n1` displayed a melting point of 204 to 206 °C.

Regarding `O=C(O)[C@@H]1CCCN1C(=O)c1cc2cc3c(cc2c2cc(OCc4ccccc4)ccc12)OCO3`, the melting point is 221 to 223 °C.

`CCOC(=O)C(=CNc1cccc(C#N)c1)C(=O)OCC` had a melting point of 109 to 111 °C.

For the molecule `O=C(c1ccccc1)c1ccc(C(=O)N2Cc3ccccc3Oc3ccccc32)cc1`, the melting point lay in the range of 103 to 106 °C.

`Cc1cc2ccccc2nc1C(=O)O`: the melting point fell in the range of 141 to 142 °C.

In turn, `COc1c(Cl)ccnc1C(=O)O` returned a melting point of 116 to 117 °C.

Regarding `CC12CCC3c4ccc(C(=O)O)cc4CCC3C1CCC2C(=O)C#Cc1ccccc1` (configuration not stated), the melting point is 174 to 178 °C.

For `CC1OC(n2cc(F)c(NC(=O)c3ccc4c(c3)OCO4)nc2=O)C(O)C1O` (configuration not stated), the melting point was 124 to 125 °C.

For `CCc1cnc(N)c2ccccc12`, the melting point lay within 84 to 85 °C.

`O=C1CCC(CCN2CC(N3CCOCC3)C2)(c2ccc(Cl)c(Cl)c2)CN1Cc1ccc(-c2ccccc2)cc1` (configuration not stated) returned a melting point of 72 to 82 °C.

Regarding `CCCCCCCCOc1ccc(C(=O)Oc2ccc(-c3ccc(O)cc3)cc2)cc1`, the melting point came to 183 °C.

Take `O=C(Cn1sc2ccccc2c1=O)N1CCN(C(=O)OCc2ccccc2)CC1`: the melting point was 138 to 142 °C.

As to `O=C(c1ccccc1CN1CC=CCC1)N1CCN2C(=O)OC(c3ccccc3)(c3ccccc3)C2C1` (configuration not stated), the melting point is 155 to 157 °C.

`O=c1oc2c(-c3ccccc3)cccc2c(OCCN2CCOCC2)c1-c1ccccc1` displayed a melting point of 106 to 108 °C.

The molecule `Cc1nccc2[nH]c(=O)c(N)cc12` registered a melting point of 283 to 285 °C.

`Fc1ccc(Nc2nc(NCc3ccc(Cl)nc3)nc(NN=Cc3ccc(OC(F)(F)F)cc3)n2)cc1C(F)(F)F` displayed a melting point of 117 to 125 °C.

Take `CC(C)OC(=O)c1cc(N=c2sc(=O)n3n2CCCC3)c(F)cc1F`: the melting point lay within 86 to 88 °C.

`Cc1cnc(N2CCc3ccccc3CC2)c([N+](=O)[O-])c1` gave a melting point of 87 to 88 °C.

In the case of `CN(C)C(=O)c1cc(-c2ncc(C(F)(F)F)cc2Cl)ccc1Cl`, the melting point lay within 90 to 91 °C.

On to `CCCn1cnc2c1c(=O)n(CC(C)(O)C#CCN(CC)CC)c(=O)n2C` (configuration not stated), for which the melting point was found to be 109 °C.

`CCC(=O)NC[C@H]1CN(c2ccc(C3CCS(=O)(=O)CC3)c(F)c2)C(=O)O1` gave a melting point of 200 to 201 °C.

Turning to `Cc1ccc(S(=O)(=O)Nc2ccccc2C#N)cc1`, the melting point fell in the range of 134 to 136 °C.

`CN1C(O)=C(C(=O)Nc2ccc(Cl)cc2)c2sccc2S1(=O)=O` showed a melting point of 172 °C.

Molecule `O=C(/C=C/c1ccc(Cl)cc1)N1CCN(C(=O)c2cc(C(F)(F)F)cc(C(F)(F)F)c2)[C@H](Cc2c[nH]c3ccccc23)C1` displayed a melting point of 125 to 138 °C.

Consider `COc1cc2c(cc1Nc1ncc(Cl)c(Nc3ccc(C#N)cc3OC)n1)CCN(CC(=O)N(C)C)CC2`, for which the melting point lay in the range of 92 to 105 °C.
